Experimental data from patent US4208514A, “4(3H)-Oxobenzo-2,1,3-thiadiazine-2,2-dioxides” (The Dow Chemical Company, priority 1976, dated 1980).

Legend:
Assay type in all cases: in vivo
Cotton = test: Selective post-emergent greenhouse test, Cotton (crop injury); settings: for plant injury at 358.672 g/ha / plant injury at 706.135 g/ha: Gossypium hirsutum, post-emergence, 336 h, 2 weeks, crop, read-out: % Control Cotton; for plant injury at 358.672 g/ha: 0.32 lbs/acre; for plant injury at 706.135 g/ha: 0.63 lbs/acre
From the text: (§1) So as to illustrate clearly the phytotoxic properties of the various active ingredients of the present invention, a group of controlled greenhouse experiments is described below.
(§2) Various species of plants, both broadleaf weeds and valuable crops, were planted in beds of good agricultural soil in a greenhouse. After the plants had emerged and grown to a height of about 2-6 inches, a portion of the plants were sprayed with an aqueous mixture, made by mixing a selected active ingredient and emulsifier or dispersant with water to provide solution containing 250 or 125 ppm active ingredient, employing sufficient amounts of the treating composition to provide low post emergent application rates of about 0.63 or 0.32 pounds per acre. Other portions of the plants were left untreated to serve as controls. In each test the active ingredient was a 3-methylethyl-1H-2,1,3-benzothiadiazin-4(3H)-one-2,2-dioxide having a substituent in the one position according to the invention.
(§3) After a period of 2 weeks the selective effect of the test ingredient on the plants was evaluated by a comparison with the control group of plants.

Velvet Leaf = test: Selective post-emergent greenhouse test, Velvet Leaf; settings: for pest or weed control at 358.672 g/ha / pest or weed control at 706.135 g/ha: post-emergence, 336 h, 2 weeks; for pest or weed control at 358.672 g/ha: 0.32 lbs/acre; for pest or weed control at 706.135 g/ha: 0.63 lbs/acre
From the text: as §1, §2, §3

Soybean = test: Selective post-emergent greenhouse test, Soybean (crop injury); settings: Glycine max, post-emergence, 336 h, 2 weeks, read-out: % Control Soybean; for plant injury at 358.672 g/ha: 0.32 lbs/acre; for plant injury at 706.135 g/ha: 0.63 lbs/acre
From the text: as §1, §2, §3

Jimson Weed = test: Selective post-emergent greenhouse test, Jimson Weed; settings: post-emergence, 336 h, 2 weeks; for pest or weed control at 706.135 g/ha: 0.63 lbs/acre; for pest or weed control at 358.672 g/ha: 0.32 lbs/acre
From the text: as §1, §2, §3

Compound	plant injury at 358.672 g/ha (Cotton; post-emergent)	plant injury at 706.135 g/ha (Cotton; post-emergent)	pest or weed control at 358.672 g/ha (Velvet Leaf)	pest or weed control at 706.135 g/ha (Velvet Leaf)	plant injury at 358.672 g/ha (Soybean)	plant injury at 706.135 g/ha (Soybean)	pest or weed control at 706.135 g/ha (Jimson Weed)	pest or weed control at 358.672 g/ha (Jimson Weed)	damage to cotton at dosage rates at which velvet leaf is controlled (Cotton; comparison compound, in general)	control of cotton (Cotton; comparison test, about 0.32 pounds per acre, post-emergent)	control of velvet leaf (Velvet Leaf; comparison test, about 0.32 pounds per acre)
CC(C)N1C(=O)c2ccccc2N(S(=O)(=O)N(C)C)S1(=O)=O [SO2 N(CH3)2, 1H-2,1,3-Benzothiadiazin-4-(3H)-one; 1-Dimethylsulfamoyl-3-(1-methylethyl)-2,2-dioxide]	5%	70%	70%	50%	0%	0%	100%	–	–	–	–
CC(C)N1C(=O)c2ccccc2N(C(=O)C(C)(C)C)S1(=O)=O [COC(CH3)3, 3-(1-Methylethyl)-1-(2,2-dimethyl-1-oxopropyl)-1H-2,1,3- -benzothiadiazin-4(3H)-one-2,2-dioxide]	0%	40%	80%	100%	0%	0%	100%	70%	–	–	–
CC(C)N1C(=O)c2ccccc2N(C(=O)OCCCl)S1(=O)=O [CO2 CH2 CH2 Cl]	10%	10%	95%	100%	0%	0%	100%	80%	–	–	–
CCC(=O)N1c2ccccc2C(=O)N(C(C)C)S1(=O)=O [COC2 H5, 1H-2,1,3-Benzothiadiazin-4(3H)-one: 3-(1-methylethyl)-1-(1-oxopropyl)-; 2,2-dioxide]	0%	100%	100%	100%	0%	0%	–	–	–	–	–
CC(C)N1C(=O)c2ccccc2N(C(=O)c2ccccc2)S1(=O)=O	0%	0%	0%	0%	0%	0%	80%	80%	–	–	–
CCC(C)OC(=O)N1c2ccccc2C(=O)N(C(C)C)S1(=O)=O (stereo not shown)	30%	30%	100%	100%	0%	0%	100%	100%	–	–	–
CCN(CC)C(=O)N1c2ccccc2C(=O)N(C(C)C)S1(=O)=O [CON(C2 H5)2]	10%	90%	0%	20%	0%	0%	100%	100%	–	–	–
CCCCCCCCCCCC(=O)N1c2ccccc2C(=O)N(C(C)C)S1(=O)=O [CO(CH2)10 CH3, 3-(1-Methylethyl)-1-(1-oxododecanyl)-1H-2,1,3-benzothiadiazin-4 (3H)-one-2,2-dioxide]	0%	20%	60%	70%	0%	0%	100%	100%	–	–	–
CC(C)N1C(=O)c2ccccc2N(S(=O)(=O)c2ccccc2)S1(=O)=O	0%	0%	0%	30%	0%	0%	100%	100%	–	–	–
CC(C)N1C(=O)c2ccccc2NS1(=O)=O [3-methylethyl-1H-2,1,3-benzothiadiazin-4(3H)-one-2,2-dioixde, reference compound]	–	–	–	–	–	–	–	–	cotton suffers substantial damage	90%	control of velvet leaf was obtained
CC(Br)C(=O)N1c2ccccc2C(=O)N(C(C)C)S1(=O)=O (stereo not shown) [COCHBrCH3, 1H-2,1,3-Benzothiadiazin-4(3H)-one: 1-(2-Bromo-1-oxopropyl)-3-(1-methylethyl)-; 2,2-dioxide]	0%	4%	100%	100%	0%	0%	100%	100%	–	–	–
CC(C)N1C(=O)c2ccccc2N(C(=O)N(C)C)S1(=O)=O [CON(CH3)2, 1H-2,1,3-Benzothiadiazine-1-carboxamide: N,N-Dimethyl-3,4-dihydro-3-(1-methylethyl)-4-oxo-, 2,2-dioxide]	–	40%	40%	95%	0%	0%	100%	100%	–	–	–
COC(=O)CCC(=O)N1c2ccccc2C(=O)N(C(C)C)S1(=O)=O [drawing 13]	0%	60%	70%	100%	0%	0%	100%	100%	–	–	–
CCOC(=O)N1c2ccccc2C(=O)N(C(C)C)S1(=O)=O [CO2 CH2 CH3]	10%	30%	70%	100%	0%	0%	100%	100%	–	–	–
CC(C)N1C(=O)c2ccccc2N(C(=O)C2CCCCC2)S1(=O)=O	0%	100%	0%	100%	0%	0%	100%	100%	–	–	–
CC(C)COC(=O)N1c2ccccc2C(=O)N(C(C)C)S1(=O)=O [CO2 CH2 CH(CH3)2, 1H-2,1,3-Benzothiadiazine-1-carboxylic Acid: 3,4-Dihydro-3-(1-methylethyl)-4-oxo-, 2-Methylpropyl Ester, 2,2-Dioxide]	0%	0%	100%	100%	10%	10%	100%	100%	–	–	–
CC(C)N1C(=O)c2ccccc2N(C(=O)CC(C)(C)C)S1(=O)=O [COCH2 C(CH3)3, 1H-2,1,3-Benzothiadiazin-4(3H)-one: 1-(3,3-dimethyl-1-oxobutyl)-3-(1-methylethyl)-; 2,2-dioxide]	0%	0%	100%	100%	0%	0%	100%	90%	–	–	–
